Source: patent US4521538A (Medosan Industrie Biochimiche Riunite S.p.A., priority 1982, dated 1985)
Counter-ions that a name gives are not always drawn. Like-named read-outs stand apart in the source and are kept apart here. Each block holds one compound with its values, some of them ahead of it.

Assays:
[1] = Mucolytic activity in vitro, consistency of human expectoration; conditions: 12 experiments
Method: The experiment was carried out "in vitro" according to the method of R. S. Hirsch (Bull. […] Table IV lists the percentage decrease of the expectoration consistency provoked by the compound of this invention in comparison with dithiothreitol and acetylcysteine which are known mucolytic agents.

[2] = Antiinflammatory activity, carrageenin-induced oedema test; type: in vivo, rats
Method: This effect was evaluated by means of an experimental model reproducing acute inflammation in rats: for this purpose the carrageenin-induced oedema test was employed following the method described by C. A. Winter (J. Pharmac. Exp. […] Wong, J. F. Gardocki and T. P. Pruss, J. Pharmac. Exp. Ther. 185 (1): 127, 1973). Table I lists the tested compounds, the concentration thereof, routes of administration and relative percentage oedema inhibitions; the data are commented upon at the end of the Tables.

[3] = Analgesic activity, phenylquinone-induced writhing test; type: in vivo
Method: The inhibiting effect on the abdominal contractions induced by phenyl-p-quinone was calculated by the following formula: [formula]
Table II lists the doses, routes of administration and their efficacy expressed as percentage of protection.

[4] = Antitussive activity (method of Y. Kase); type: in vivo, albino male Guinea-pigs
Method: The antitussive effect on albino male Guinea-pigs weighing 300 g was evaluated using the method described by Y. Kase (Selected Pharmacological Testing Methods, p. 363, Marcel Dekker Inc., New York, 1968).

[5] = type: in vivo, male Wistar rats; conditions: for mean severity: scale 0 (no lesion) to 5 (perforations)
Method: Male Wistar rats weighing 180 g were randomized into groups of 10. Three doses of each compound were administered. One group received the vehicle alone (10 ml/kg b.w.). Each dose was given orally for four days consecutively and the rats were sacrificed on the fifth day for necropsy. The ulcerogenic effect was evaluated by the following scale:
(1) each haemorrhagic point at least 1 mm in diameter was scored as 1 lesion,
(2) haemorrhagic points less than 1 mm in diameter were scored in the following manner:
(c) 20 to 29=three lesions
(2) gastric mucosal irritation without haemorrhage: 1
(3) haemorrhagic points less than 1 mm in diameter: 2
(4) haemorrhagic points between 1 and 3 mm in diameter: 3
(5) haemorrhagic points larger than 3 mm in diameter: 4
By means of this scale it was possible to obtain the gastric damage index: [formula]

SMILES: O[C@H](CS)[C@H](O)CS (racemic) [Dithiothreitol]
% decrease of expectoration consistency ([1]; 0.1 M (1.5%)): 90%

SMILES: COc1ccc2c(c1)c(CC(=O)O)c(C)n2C(=O)c1ccc(Cl)cc1 [Indomethacin]
Oedema % inhibition ([2]; 2.5 mg/kg i.p., 2 h): 21.0%
Oedema % inhibition ([2]; 2.5 mg/kg i.p., 4 h): 20.0%
Oedema % inhibition ([2]; 2.5 mg/kg i.p., 6 h): 17.0%
Oedema % inhibition ([2]; 2.5 mg/kg i.p., 24 h): 2.5%
Oedema % inhibition ([2]; 2.5 mg/kg per os, 2 h): 18.6%
Oedema % inhibition ([2]; 2.5 mg/kg per os, 4 h): 20.7%
Oedema % inhibition ([2]; 2.5 mg/kg per os, 6 h): 19.2%
Oedema % inhibition ([2]; 2.5 mg/kg per os, 24 h): 2.6%
Oedema % inhibition ([2]; 5 mg/kg i.p., 2 h): 30.0%
Oedema % inhibition ([2]; 5 mg/kg i.p., 4 h): 29.0%
Oedema % inhibition ([2]; 5 mg/kg i.p., 6 h): 23.0%
Oedema % inhibition ([2]; 5 mg/kg i.p., 24 h): 3.4%
Oedema % inhibition ([2]; 5 mg/kg per os, 2 h): 26.3%
Oedema % inhibition ([2]; 5 mg/kg per os, 4 h): 29.1%
Oedema % inhibition ([2]; 5 mg/kg per os, 6 h): 28.5%
Oedema % inhibition ([2]; 5 mg/kg per os, 24 h): 2.7%
Oedema % inhibition ([2]; 10 mg/kg i.p., 2 h): 49.7%
Oedema % inhibition ([2]; 10 mg/kg i.p., 4 h): 46.0%
Oedema % inhibition ([2]; 10 mg/kg i.p., 6 h): 48.1%
Oedema % inhibition ([2]; 10 mg/kg i.p., 24 h): 8.0%
Oedema % inhibition ([2]; 10 mg/kg per os, 2 h): 48.2%
Oedema % inhibition ([2]; 10 mg/kg per os, 4 h): 49.0%
Oedema % inhibition ([2]; 10 mg/kg per os, 6 h): 46.0%
Oedema % inhibition ([2]; 10 mg/kg per os, 24 h): 7.9%

mean severity ([5]; 50 mg/kg orally, four days): 2
mean No. of lesions ([5]; 100 mg/kg orally, four days): 2.5
mean severity ([5]; 100 mg/kg orally, four days): 3.5
mean No. of lesions ([5]; 200 mg/kg orally, four days): 3
mean severity ([5]; 200 mg/kg orally, four days): 4
mean No. of lesions ([5]; rat, in vivo): 2
SMILES: Cc1ccc(C(=O)c2ccc(CC(=O)O)n2C)cc1 [Tolmetin Na.2H2 O, 1-mehtyl-5-p-toluoyl-2-acetic acid sodium salt dihydrate]
Oedema % inhibition ([2]; 25 mg/kg i.p., 2 h): 28.0%
Oedema % inhibition ([2]; 25 mg/kg i.p., 4 h): 29.1%
Oedema % inhibition ([2]; 25 mg/kg i.p., 6 h): 32.1%
Oedema % inhibition ([2]; 25 mg/kg i.p., 24 h): 8.9%
Oedema % inhibition ([2]; 25 mg/kg per os, 2 h): 24.6%
Oedema % inhibition ([2]; 25 mg/kg per os, 4 h): 26.2%
Oedema % inhibition ([2]; 25 mg/kg per os, 6 h): 30.1%
Oedema % inhibition ([2]; 25 mg/kg per os, 24 h): 6.2%
Oedema % inhibition ([2]; 50 mg/kg i.p., 2 h): 47.0%
Oedema % inhibition ([2]; 50 mg/kg i.p., 4 h): 49.1%
Oedema % inhibition ([2]; 50 mg/kg i.p., 6 h): 40.0%
Oedema % inhibition ([2]; 50 mg/kg i.p., 24 h): 7.1%
Oedema % inhibition ([2]; 50 mg/kg per os, 2 h): 43.1%
Oedema % inhibition ([2]; 50 mg/kg per os, 4 h): 46.0%
Oedema % inhibition ([2]; 50 mg/kg per os, 6 h): 41.3%
Oedema % inhibition ([2]; 50 mg/kg per os, 24 h): 9.1%
Oedema % inhibition ([2]; 100 mg/kg i.p., 2 h): 64.1%
Oedema % inhibition ([2]; 100 mg/kg i.p., 4 h): 65.8%
Oedema % inhibition ([2]; 100 mg/kg i.p., 6 h): 60.2%
Oedema % inhibition ([2]; 100 mg/kg i.p., 24 h): 11.2%
Oedema % inhibition ([2]; 100 mg/kg per os, 2 h): 60.8%
Oedema % inhibition ([2]; 100 mg/kg per os, 4 h): 60.0%
Oedema % inhibition ([2]; 100 mg/kg per os, 6 h): 64.5%
Oedema % inhibition ([2]; 100 mg/kg per os, 24 h): 14.6%
% protection ([3]; 5 mg/kg i.p.): 16.5%
% protection ([3]; 5 mg/kg per os): 15.0%
% protection ([3]; 10 mg/kg i.p.): 46.2%
% protection ([3]; 10 mg/kg per os): 40.6%
% protection ([3]; 20 mg/kg i.p.): 69.1%
% protection ([3]; 20 mg/kg per os): 62.0%
% inhibition, amplitude of coughs ([4]; 50 mg/kg i.p.): 0%
% inhibition, frequency of coughs ([4]; 50 mg/kg i.p.): 0%
% inhibition, amplitude of coughs ([4]; 50 mg/kg per os): 0%
% inhibition, frequency of coughs ([4]; 50 mg/kg per os): 0%
% inhibition, amplitude of coughs ([4]; 75 mg/kg i.p.): 0%
% inhibition, frequency of coughs ([4]; 75 mg/kg i.p.): 10%
% inhibition, amplitude of coughs ([4]; 75 mg/kg per os): 7%
% inhibition, frequency of coughs ([4]; 75 mg/kg per os): 0%
% inhibition, amplitude of coughs ([4]; 100 mg/kg i.p.): 7%
% inhibition, frequency of coughs ([4]; 100 mg/kg i.p.): 10%
% inhibition, amplitude of coughs ([4]; 100 mg/kg per os): 5%
% inhibition, frequency of coughs ([4]; 100 mg/kg per os): 5%

SMILES: CC(=O)N[C@@H](CS)C(=O)O [acetylcysteine]
% decrease of expectoration consistency ([1]; […] (20.0%)): 81%
